Experimental data: US7470821B2, “Aldolase-inhibiting aromatic compounds” (Valorisation-Recherche, Limited Partnership, priority 2003, dated 2008)
Where a chain is given by its changes, count along the chain named.

What was measured:
[1] = biological target: T1, K107M mutant RM aldolase (Oryctolagus cuniculus, UniProt P00883, K108M); experiment: UV-visible differential spectroscopy (method A) with mutated aldolase K107M; type: binding, rabbit; conditions: FHN-P 300 μM
T1 construct: made in house
T1 sequence (P00883 1-364 K108M): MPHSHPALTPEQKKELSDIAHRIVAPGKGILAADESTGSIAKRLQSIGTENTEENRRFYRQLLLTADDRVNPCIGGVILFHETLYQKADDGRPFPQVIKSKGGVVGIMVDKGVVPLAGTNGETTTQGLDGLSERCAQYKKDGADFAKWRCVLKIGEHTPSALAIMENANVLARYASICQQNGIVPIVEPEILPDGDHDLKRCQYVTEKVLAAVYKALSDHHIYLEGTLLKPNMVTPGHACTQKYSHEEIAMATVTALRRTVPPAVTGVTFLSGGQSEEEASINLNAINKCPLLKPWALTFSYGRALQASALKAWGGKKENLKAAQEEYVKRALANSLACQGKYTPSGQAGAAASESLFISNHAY
Experimental: (§1) For method A, absorption spectra are recorded as a function of time, between 250 and 500 nm, or at wavelengths corresponding to maximum or minimum absorption. Measurements are begun by adding FHN-P at varying final concentrations (0.1-1 mM) in the TEA buffer containing a fixed concentration of aldolase (10 μM of subunits). Measured absorption spectra for the enzyme complex are corrected using the absorbance of the buffer, the FHN—P, and the enzyme (measured separately). The differential absorption spectra thus obtained are used to calculate the value of the constants that define the formation of the aldolase-inhibitor complex.
(§2) Every UV-visible differential test spectroscopy test using mutated aldolases (10 μM of subunits) is carried out using method A. • Monitored by Electrospray Ionization Mass Spectrometry (ESI-MS).
(§3) Residues of lysine 106, 146 and 229 residues are located at the active aldolase sites and thus are candidates for causing inactivation by forming a Schiff base with the FHN-P. In order to identify which lysine is responsible for the differential absorbances in the presence of FHN-P, sporadic mutations of these lysine residues were created and named: K107M (Research Collaboratory for Structural Bioinformatics Protein Databank), K146M (Blonski C. et al., 1997, Biochem. J. 323:71-77) and […] (Research Collaboratory for Structural Bioinformatics Protein Databank). […] UV-visible differential spectroscopy (method A) was used to examine formation of the enzyme complex for each sporadic mutation in the presence of a fixed concentration of FHN-P (300 μM).

[2] = biological target: T2, K146M mutant RM aldolase (Oryctolagus cuniculus, UniProt P00883, K147M); experiment: UV-visible differential spectroscopy (method A) with mutated aldolase K146M; type: binding, rabbit; conditions: FHN-P 300 μM; for kapp: 431 nm
T2 construct: made in house
T2 sequence (P00883 1-364 K147M): T1 sequence (P00883 1-364 K108M) with M108K, K147M
Experimental: as §1, §2, §3

[3] = Titration of FHN-P by aminocaproic acid, Schiff base model reaction (method B); conditions: 25° C
Experimental: Method B is used to titrate FHN-P by aminocaproic acid. For each analysis of TEA buffer containing a fixed concentration of FHN-P (10 μM), aminocaproic acid is added to obtain varying final concentrations (0.01-0.2 M). The differential absorption spectra, corresponding to the formation of a Schiff base, are recorded at different time intervals, then corrected with absorbance of the buffer, the aminocaproic acid and FHN-P (measured separately).
The apparent first-order rate constant (kapp) and the maximum threshold variations of absorption (ΔAmax) are obtained for each test by applying the slow-binding absorption data to the first-order kinetic equation (or to both first-order kinetic mechanisms). The dissociation constant (Kd) for the Schiff base formed between the FHN-P and the aminocaproic acid is obtained from the absorption differences calculated at equilibrium by using the equation eqn.(2). […]
The FHN-P and the ε-amino group of aldolase lysine residues were taken as the model for formation of the Schiff base, with the reaction of FHN-P (10 μM) with aminocaproic acid […] as a reference, and which was monitored by UV-visible differential spectroscopy. […]

Structure (SMILES): O=Cc1c(O)ccc2cc(OP(=O)(O)O)ccc12 [FHN-P, 5-formyl-6-hydroxy-2-naphthylphosphate]
- Residual specific activity [1]: 95%
- ΔA relative to 432 nm ([1]; slow phase only): 30%
- kapp ([1]; slow phase only, 431 nm): 0.0015 ± 0.0005 min⁻¹
- Residual specific activity [2]: ud
- ΔA relative to 432 nm ([2]; first phase): 98%
- kapp ([2]; first phase (associated with inhibition)): 0.005 ± 0.0005 min⁻¹
- ΔA relative to 432 nm ([2]; second (slow) phase): 25%
- kapp ([2]; second (slow) phase): 0.0015 ± 0.0003 min⁻¹
- second-order constant k2nd ([3]; FHN-P 10 μM with aminocaproic acid): 0.002 ± 0.00017 M⁻¹ s⁻¹
- Kd ([3]; Schiff base, TEA buffer, read-out: dissociation constant Kd of FHN-P-aminocaproic acid): 16 ± 3 mM
